Results reported in ChEMBL document CHEMBL5543092, “Design, synthesis, and biological characterization of proteolysis targeting chimera (PROTACs) for the ataxia telangiectasia and RAD3-related (ATR) kinase” (Eur J Med Chem, 2024).
Activity calls are given as the source filed them. The calls are words filed in the database; no cut-off is given here.

How the values were obtained:
[1] = Chemical stability of the compound in at pH 7.4 measured at 6 hrs by HPLC based non-enzymatic stability assay; type: physicochemical; settings: buffer, read-out: Stability
[2] = Chemical stability of the compound in at pH 7.4 measured at 12 hrs by HPLC based non-enzymatic stability assay; type: physicochemical; settings: buffer, read-out: Stability
[3] = Chemical stability of the compound in at pH 7.4 measured at 24 hrs by HPLC based non-enzymatic stability assay; type: physicochemical; settings: buffer, read-out: Stability
[4] = Chemical stability of the compound in at pH 7.4 measured at 48 hrs by HPLC based non-enzymatic stability assay; type: physicochemical; settings: buffer, read-out: Stability
[5] = Chemical stability of the compound in at pH 7.4 measured at 72 hrs by HPLC based non-enzymatic stability assay; type: physicochemical; settings: buffer, read-out: Stability
[6] = molecular target: T1, Protein cereblon/Serine/threonine-protein kinase ATR (Homo sapiens) (UniProt Q13535+Q96SW2); assay: PROTAC activity at ATR/CRBN in patient derived human MIA PaCa-2 cells assessed as reduction in protein level at 2 uM measured after 24 hrs by immunoblot analysis relative to untreated control; type: cell-based; set-up: scale not given: the % may be the effect or the level left
T1 sequence (Q13535 whole entry, looked up): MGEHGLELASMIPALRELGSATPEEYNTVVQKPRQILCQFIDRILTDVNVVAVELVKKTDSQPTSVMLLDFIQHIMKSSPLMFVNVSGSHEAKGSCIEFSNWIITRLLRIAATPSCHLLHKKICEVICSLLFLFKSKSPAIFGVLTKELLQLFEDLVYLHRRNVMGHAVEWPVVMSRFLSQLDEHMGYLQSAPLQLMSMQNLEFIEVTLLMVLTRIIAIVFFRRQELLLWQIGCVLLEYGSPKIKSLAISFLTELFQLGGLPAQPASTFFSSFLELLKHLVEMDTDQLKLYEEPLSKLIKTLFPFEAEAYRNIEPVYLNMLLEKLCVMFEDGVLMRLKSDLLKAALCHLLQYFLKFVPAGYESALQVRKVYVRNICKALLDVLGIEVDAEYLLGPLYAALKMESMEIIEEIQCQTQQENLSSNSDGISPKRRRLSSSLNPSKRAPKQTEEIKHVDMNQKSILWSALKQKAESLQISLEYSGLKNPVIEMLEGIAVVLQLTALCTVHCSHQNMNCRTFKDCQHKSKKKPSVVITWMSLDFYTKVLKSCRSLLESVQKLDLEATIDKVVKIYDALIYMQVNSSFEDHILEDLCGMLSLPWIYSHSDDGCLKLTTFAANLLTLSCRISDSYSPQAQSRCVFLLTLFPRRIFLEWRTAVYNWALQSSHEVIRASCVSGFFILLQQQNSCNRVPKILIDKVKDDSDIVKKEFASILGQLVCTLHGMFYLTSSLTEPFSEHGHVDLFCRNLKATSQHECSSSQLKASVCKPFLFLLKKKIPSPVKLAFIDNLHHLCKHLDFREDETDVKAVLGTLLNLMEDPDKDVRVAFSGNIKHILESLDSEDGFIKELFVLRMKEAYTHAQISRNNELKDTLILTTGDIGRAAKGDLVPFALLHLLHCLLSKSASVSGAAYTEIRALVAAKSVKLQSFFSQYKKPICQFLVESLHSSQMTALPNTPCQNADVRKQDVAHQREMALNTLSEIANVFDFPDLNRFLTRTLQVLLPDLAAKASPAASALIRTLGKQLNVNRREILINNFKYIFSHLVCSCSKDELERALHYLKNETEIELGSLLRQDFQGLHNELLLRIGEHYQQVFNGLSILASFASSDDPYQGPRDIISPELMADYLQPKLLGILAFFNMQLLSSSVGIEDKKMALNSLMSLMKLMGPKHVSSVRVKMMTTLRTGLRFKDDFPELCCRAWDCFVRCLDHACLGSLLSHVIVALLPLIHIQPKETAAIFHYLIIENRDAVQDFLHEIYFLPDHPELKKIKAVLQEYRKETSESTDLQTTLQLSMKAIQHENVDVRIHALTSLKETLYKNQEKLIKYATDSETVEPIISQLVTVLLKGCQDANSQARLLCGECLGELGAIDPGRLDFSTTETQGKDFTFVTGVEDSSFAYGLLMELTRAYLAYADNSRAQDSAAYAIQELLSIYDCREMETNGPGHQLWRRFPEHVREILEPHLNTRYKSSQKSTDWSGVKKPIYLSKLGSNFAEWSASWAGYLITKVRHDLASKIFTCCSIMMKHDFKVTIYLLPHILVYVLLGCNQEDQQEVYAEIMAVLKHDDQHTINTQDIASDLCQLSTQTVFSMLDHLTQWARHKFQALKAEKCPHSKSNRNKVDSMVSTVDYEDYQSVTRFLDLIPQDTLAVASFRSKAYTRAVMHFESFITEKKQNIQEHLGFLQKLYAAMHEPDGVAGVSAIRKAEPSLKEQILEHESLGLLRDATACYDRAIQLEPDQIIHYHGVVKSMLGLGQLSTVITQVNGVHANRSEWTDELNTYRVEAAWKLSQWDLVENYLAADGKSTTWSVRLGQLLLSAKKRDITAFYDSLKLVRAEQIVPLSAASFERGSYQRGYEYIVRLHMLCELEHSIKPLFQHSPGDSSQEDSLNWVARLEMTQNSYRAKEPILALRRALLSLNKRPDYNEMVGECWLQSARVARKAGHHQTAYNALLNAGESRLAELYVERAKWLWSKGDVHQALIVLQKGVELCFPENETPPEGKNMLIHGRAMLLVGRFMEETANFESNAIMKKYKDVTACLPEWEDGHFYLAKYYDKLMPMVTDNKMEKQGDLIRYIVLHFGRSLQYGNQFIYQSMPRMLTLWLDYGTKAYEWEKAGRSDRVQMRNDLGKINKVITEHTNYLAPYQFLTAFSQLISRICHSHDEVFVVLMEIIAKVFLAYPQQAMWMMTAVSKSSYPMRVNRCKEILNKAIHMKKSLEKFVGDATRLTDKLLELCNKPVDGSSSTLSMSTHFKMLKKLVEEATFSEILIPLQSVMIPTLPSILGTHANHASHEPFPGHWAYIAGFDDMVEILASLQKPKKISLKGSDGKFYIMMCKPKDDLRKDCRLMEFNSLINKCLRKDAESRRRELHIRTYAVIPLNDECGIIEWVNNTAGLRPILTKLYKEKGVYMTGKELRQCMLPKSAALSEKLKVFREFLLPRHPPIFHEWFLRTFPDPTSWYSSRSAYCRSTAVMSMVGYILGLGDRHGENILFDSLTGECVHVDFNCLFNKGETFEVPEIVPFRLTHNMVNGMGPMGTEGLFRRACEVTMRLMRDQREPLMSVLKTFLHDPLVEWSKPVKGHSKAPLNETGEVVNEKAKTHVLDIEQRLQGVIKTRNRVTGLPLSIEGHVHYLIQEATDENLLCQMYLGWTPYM
T1 sequence (Q96SW2 whole entry, looked up): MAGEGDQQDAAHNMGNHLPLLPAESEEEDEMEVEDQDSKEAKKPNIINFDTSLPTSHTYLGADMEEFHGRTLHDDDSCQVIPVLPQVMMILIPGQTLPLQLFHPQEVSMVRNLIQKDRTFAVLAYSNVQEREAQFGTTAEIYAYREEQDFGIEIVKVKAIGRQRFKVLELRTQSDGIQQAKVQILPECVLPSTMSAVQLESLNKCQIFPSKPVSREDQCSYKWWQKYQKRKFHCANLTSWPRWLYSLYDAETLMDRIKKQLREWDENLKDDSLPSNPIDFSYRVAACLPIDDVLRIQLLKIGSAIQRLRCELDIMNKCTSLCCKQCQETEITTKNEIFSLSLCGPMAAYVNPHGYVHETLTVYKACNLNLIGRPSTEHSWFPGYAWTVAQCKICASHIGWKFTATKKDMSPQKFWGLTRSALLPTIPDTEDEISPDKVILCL

HEK293 = assay: Cytotoxicity against human HEK293 cells assessed as cell viability at 50 uM incubated for 24 hrs by Alamar Blue reagent based assay relative to control; type: functional; settings: read-out: Activity
[7] = molecular target: T1, Protein cereblon/Serine/threonine-protein kinase ATR (Homo sapiens); assay: PROTAC activity at ATR/CRBN in patient derived human MIA PaCa-2 cells assessed as reduction in protein level at 0.1 to 5 uM measured after 24 hrs by immunoblot analysis relative to untreated control; type: cell-based; settings: dose 0.1-5 µM
[8] = molecular target: T2, von Hippel-Lindau disease tumor suppressor/Serine/threonine-protein kinase ATR (Homo sapiens) (UniProt Q13535+P40337); assay: PROTAC activity at ATR/VHL in patient derived human MIA PaCa-2 cells assessed as protein degradation at 2 uM measured after 24 hrs by immunoblot analysis relative to untreated control; type: cell-based
T2 sequence (P40337 whole entry, looked up): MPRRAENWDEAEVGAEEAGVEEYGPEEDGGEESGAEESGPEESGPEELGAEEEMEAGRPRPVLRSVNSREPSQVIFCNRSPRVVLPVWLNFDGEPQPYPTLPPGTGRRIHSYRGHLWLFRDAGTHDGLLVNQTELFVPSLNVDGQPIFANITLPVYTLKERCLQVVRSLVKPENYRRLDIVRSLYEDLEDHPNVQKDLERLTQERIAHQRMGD
T2 sequence (Q13535 whole entry, looked up): as the sequence (Q13535 whole entry, looked up) above

[9] = molecular target: T2, von Hippel-Lindau disease tumor suppressor/Serine/threonine-protein kinase ATR (Homo sapiens); assay: PROTAC activity at ATR/VHL in patient derived human MIA PaCa-2 cells assessed as protein degradation at 5 uM measured after 24 hrs by immunoblot analysis relative to untreated control; type: cell-based

SMILES | remaining at 6 h [1] | remaining at 12 h [2] | remaining at 24 h [3] | remaining at 48 h [4] | remaining at 72 h [5] | Activity [6] | viability at 50 µM (HEK293) | Activity [7] | Activity [8] | Activity [9]
CN1C(=O)CCC(N2Cc3c(C#CCCCNC(=O)CCCCCNS(=O)(=O)c4ccc(-c5cnc(N)c(C(=O)Nc6ccccc6)n5)cc4)cccc3C2=O)C1=O (stereo unspecified) | 100% | 100% | 99% | 98% | 97% | inactive | 83.5% |  |  | 
Nc1ncc(-c2ccc(S(=O)(=O)NCCOCCOCCC(=O)N3CCN(c4ccc5c(c4)C(=O)N(C4CCC(=O)NC4=O)C5=O)CC3)cc2)nc1C(=O)Nc1ccccc1 (stereo unspecified) | 100% | 95% | 80% | 21% | 6% | inactive | 79.9% |  |  | 
Nc1ncc(-c2ccc(S(=O)(=O)NCCCCCCCC(=O)NCCOc3ccc(C4CCC(=O)NC4=O)cc3)cc2)nc1C(=O)Nc1ccccc1 (stereo unspecified) | 100% | 99% | 100% | 100% | 100% |  | 62.9% | inactive |  | 
Cc1ncsc1-c1ccc(CNC(=O)[C@@H]2C[C@@H](O)CN2C(=O)[C@@H](NC(=O)CCOCCOCCNS(=O)(=O)c2ccc(-c3cnc(N)c(C(=O)Nc4ccccc4)n3)cc2)C(C)(C)C)cc1 | 100% | 100% | 101% | 101% | 102% |  | 44.5% |  | inactive | inactive
CNCc1ccc(-c2nnc(-c3nc(-c4ccc(S(=O)(=O)NCCCCCC(=O)NCC#Cc5cccc6c5CN(C5CCC(=O)NC5=O)C6=O)cc4)cnc3N)o2)cc1 (stereo unspecified) | 101% | 101% | 101% | 100% | 100% | > 20% | 102% |  |  | 
Nc1ncc(-c2ccc(S(=O)(=O)NCCCCC(=O)NCC#Cc3cccc4c3CN(C3CCC(=O)NC3=O)C4=O)cc2)nc1-c1nnc(-c2ccccc2)o1 (stereo unspecified) | 104% | 105% | 105% | 103% | 107% | inactive | 95.5% |  |  | 
Nc1ncc(-c2ccc(S(=O)(=O)NCCCCCC(=O)NCC#Cc3cccc4c3CN(C3CCC(=O)NC3=O)C4=O)cc2)nc1C(=O)Nc1ccccc1 (stereo unspecified) | 101% | 103% | 104% | 105% | 109% | Active | 86.4% |  |  | 
Nc1ncc(-c2ccc(S(=O)(=O)NCCCCCC(=O)NCC#Cc3cccc4c3CN(C3CCC(=O)NC3=O)C4=O)cc2)nc1-c1nnc(-c2ccccc2)o1 (stereo unspecified) | 108% | 105% | 105% | 106% | 106% | 40% | 70.5% |  |  | 
Nc1ncc(-c2ccc(S(=O)(=O)NCCCCCCC(=O)NCCOc3ccc(C4CCC(=O)NC4=O)cc3)cc2)nc1C(=O)Nc1ccccc1 (stereo unspecified) | 101% | 103% | 102% | 102% | 101% |  | 95.7% | inactive |  | 
CNCc1ccc(-c2nnc(-c3nc(-c4ccc(S(=O)(=O)NCCCCCCC(=O)NCC#Cc5cccc6c5CN(C5CCC(=O)NC5=O)C6=O)cc4)cnc3N)o2)cc1 (stereo unspecified) | 101% | 101% | 101% | 100% | 101% | > 20% | 89.5% |  |  | 
Nc1ncc(-c2ccc(S(=O)(=O)NCCOCCOCCOCCC(=O)N3CCN(c4ccc5c(c4)C(=O)N(C4CCC(=O)NC4=O)C5=O)CC3)cc2)nc1C(=O)Nc1ccccc1 (stereo unspecified) | 101% | 100% | 97% | 83% | 74% | inactive | 75% |  |  | 
Nc1ncc(-c2ccc(S(=O)(=O)NCCCCC(=O)N3CCN(c4ccc5c(c4)C(=O)N(C4CCC(=O)NC4=O)C5=O)CC3)cc2)nc1C(=O)Nc1ccccc1 (stereo unspecified) | 97% | 94% | 90% | 82% | 74% | inactive | 102% |  |  | 
Nc1ncc(-c2ccc(S(=O)(=O)NCCCCCC(=O)N3CCN(c4ccc5c(c4)C(=O)N(C4CCC(=O)NC4=O)C5=O)CC3)cc2)nc1-c1nnc(-c2ccccc2)o1 (stereo unspecified) | 96% | 92% | 90% | 80% | 73% |  | 85.6% | inactive |  | 
CNCc1ccc(-c2nnc(-c3nc(-c4ccc(S(=O)(=O)NCCCCC(=O)NCCCC#Cc5cccc6c5CN(C5CCC(=O)NC5=O)C6=O)cc4)cnc3N)o2)cc1 (stereo unspecified) | 101% | 101% | 102% | 100% | 100% | 40% | 107% |  |  | 
Nc1ncc(-c2ccc(S(=O)(=O)NCCCCCCCC(=O)N3CCN(c4ccc5c(c4)C(=O)N(C4CCC(=O)NC4=O)C5=O)CC3)cc2)nc1C(=O)Nc1ccccc1 (stereo unspecified) | 98% | 105% | 108% | 94% | 84% | inactive | 90.5% |  |  | 
CNCc1ccc(-c2nnc(-c3nc(-c4ccc(S(=O)(=O)NCCCCCC(=O)NCCCC#Cc5cccc6c5CN(C5CCC(=O)NC5=O)C6=O)cc4)cnc3N)o2)cc1 (stereo unspecified) | 104% | 103% | 103% | 103% | 102% | inactive | 101% |  |  | 
CNCc1ccc(-c2nnc(-c3nc(-c4ccc(S(=O)(=O)NCCCCCC(=O)N5CCN(c6ccc7c(c6)C(=O)N(C6CCC(=O)NC6=O)C7=O)CC5)cc4)cnc3N)o2)cc1 (stereo unspecified) | 98% | 95% | 92% | 81% | 71% |  | 105% | inactive |  | 
Nc1ncc(-c2ccc(S(=O)(=O)NCCCCC(=O)NCCOc3ccc(C4CCC(=O)NC4=O)cc3)cc2)nc1C(=O)Nc1ccccc1 (stereo unspecified) | 101% | 101% | 101% | 99% | 99% |  | 66.4% | inactive |  | 
Nc1ncc(-c2ccc(S(=O)(=O)NCCCCCC(=O)N3CCN(c4cccc(C(=O)NC5CCC(=O)NC5=O)n4)CC3)cc2)nc1C(=O)Nc1ccccc1 (stereo unspecified) | 102% | 104% | 97% | 82% | 65% |  | 86.5% | inactive |  | 
CNCc1ccc(-c2nnc(-c3nc(-c4ccc(S(=O)(=O)NCCCCCCC(=O)NCCCC#Cc5cccc6c5CN(C5CCC(=O)NC5=O)C6=O)cc4)cnc3N)o2)cc1 (stereo unspecified) | 101% | 101% | 101% | 95% | 93% | > 20% | 91.8% |  |  | 
